Measured values taken from publication PMC11784839, “Monoaminergic neurotransmitters are bimodal effectors of tau aggregation” (Science Advances, 2025).

Target: tau (Homo sapiens, UniProt P10636)
Assay: MCE Phenols Library screening, tau biosensor cell seeding assay (AvZ)
Assay type: cell-based
Conditions: for AvZ (average z score of seeding, SDs from the mean level of seeding): 10 μM phenol in cell cultures, AD brain homogenate preincubated 16 hours, two biological replicates, positive = catalyzes seeding, negative = inhibits; for Z repl 1 / Z Repl 2: Z score; for Z repl 1 / raw data 1: replicate 1; for Z Repl 2 / raw data 2: replicate 2
[1] = average puncta of the two replicates
[2] = average Z score of the two replicates, MCE Phenols Library screen
[3] = average Z score of two replicates, Phenols Library screen
[4] = average Z score of the two replicates, tau seeding

Chain of tau (P10636 623-695 limits assumed): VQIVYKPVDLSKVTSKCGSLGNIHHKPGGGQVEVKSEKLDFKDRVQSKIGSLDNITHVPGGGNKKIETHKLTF

| SMILES | AvZ (average z score of seeding, SDs from the mean level of seeding) | Z repl 1 | Z Repl 2 | av puncta [1] | raw data 1 (raw puncta) | raw data 2 (raw puncta) | av puncta (average of raw data 1 and 2) | raw data 1 (puncta) | raw data 2 (puncta) | av Z [2] | av Z [3] | av Z [4] |
| --- | --- | --- | --- | --- | --- | --- | --- | --- | --- | --- | --- | --- |
| O=C(O)c1cccc(O)c1O [Pyrocatechuic acid] | -0.338 | -0.028 | -0.648 | 15926.2 | 26009.1 | 5843.4 | – | – | – | – | – | – |
| Oc1cccc(O)c1O [Pyrogallol] | -0.851 | -0.635 | -1.067 | – | – | – | 10051 | 18727.1 | 1374.88 | – | – | – |
| O=c1c(O)c(-c2ccc(O)c(O)c2)oc2cc(O)c(O)c(O)c12 [Quercetagetin] | – | -1.958 | -1.183 | – | – | – | 1487.44 | 2842.17 | 132.721 | -1.57 | – | – |
| O=c1c(O)c(-c2ccc(O)c(O)c2)oc2cc(O[C@@H]3O[C@H](CO)[C@@H](O)[C@H](O)[C@H]3O)c(O)c(O)c12 [Quercetagitrin] | – | -1.577 | -1.176 | – | – | – | 3815.32 | 7422.91 | 207.732 | -1.376 | – | – |
| O.O.O=c1c(O)c(-c2ccc(O)c(O)c2)oc2cc(O)cc(O)c12 [Quercetin (dihydrate)] | – | -1.56 | -1.162 | – | – | – | 3988.66 | 7625.22 | 352.104 | -1.361 | – | – |
| C[C@@H]1O[C@@H](Oc2c(-c3ccc(O)c(O)c3)oc3cc(O)cc(O)c3c2=O)[C@H](O)[C@H](O)[C@H]1O [Quercitrin] | – | -0.089 | -0.329 | 17263.5 | 25279.8 | 9247.27 | – | – | – | -0.209 | – | – |
| O=C1c2ccccc2C(=O)c2c(O)ccc(O)c21 [Quinizarin] | – | -1.021 | -0.252 | 12081.4 | – | – | – | 14091.5 | 10071.4 | -0.637 | – | – |
| CC(=O)CCc1ccc(O)cc1 [Raspberry ketone] | -0.371 | 0.027 | -0.77 | 15608.2 | 26674.5 | 4541.81 | – | – | – | – | – | – |
| Oc1ccc(/C=C/c2cc(O)cc(O)c2)cc1 [Resveratrol] | – | -0.355 | -0.816 | 13066.7 | – | – | – | 22084.8 | 4048.5 | -0.586 | – | – |
| COc1cc(O)c2c(=O)c(OC)c(-c3ccc(OC)c(OC)c3)oc2c1 [Retusin] | – | -0.575 | -0.37 | 14132.2 | – | – | – | 19450.4 | 8814.06 | -0.472 | – | – |
| O=c1c(O[C@@H]2OC[C@@H](O)[C@H](O)[C@H]2O)c(-c2ccc(O)c(O)c2)oc2cc(O)cc(O)c12 [Reynoutrin] | – | -0.491 | -0.104 | 16057.3 | 20455.1 | 11659.4 | – | – | – | -0.297 | – | – |
| COc1cc(O)c2c(=O)c(O)c(-c3ccc(O)c(O)c3)oc2c1 [Rhamnetin] | – | -0.386 | 0.151 | – | – | – | 18050.7 | 21720.4 | 14381.1 | – | -0.117 | – |
| O=C(O)c1cc(O)c2c(c1)C(=O)c1cccc(O[C@@H]3O[C@H](CO)[C@@H](O)[C@H](O)[C@H]3O)c1C2=O [Rhein 8-Glucoside] | – | 0.64 | 0.434 | – | – | – | 25718.8 | 34038.2 | 17399.4 | – | – | 0.537 |
| C[C@@H]1O[C@@H](Oc2cc(O)c3c(=O)c(O)c(-c4ccc(O)cc4)oc3c2O)[C@H](O)[C@H](O)[C@H]1O [Rhodionin] | – | – | -1.086 | – | – | – | 6714.99 | 12258.1 | 1171.9 | -1.13 | – | – |
| C[C@@H]1O[C@@H](O[C@H]2[C@H](Oc3cc(O)c4c(=O)cc(-c5ccc(O)cc5)oc4c3)O[C@H](CO)[C@@H](O)[C@@H]2O)[C@H](O)[C@H](O)[C@H]1O [Rhoifolin] | – | 0.9 | -0.094 | – | – | – | 24460.4 | 37158.3 | 11762.4 | – | – | 0.403 |
| O=c1c(O)c(-c2cc(O)c(O)c(O)c2)oc2cc(O)ccc12 [Robinetin] | – | -0.499 | -0.831 | 12124.5 | – | – | – | 20360.8 | 3888.25 | -0.665 | – | – |
| CC1OC(OCC2OC(Oc3c(-c4ccc(O)cc4)oc4cc(OC5OC(C)C(O)C(O)C5O)cc(O)c4c3=O)C(O)C(O)C2O)C(O)C(O)C1O (centres unmarked) [Robinin] | – | 0.02 | -0.843 | 15180.1 | 26593.3 | 3766.89 | – | – | – | -0.411 | – | – |
| COc1c2ccoc2nc2c(O)cccc12 [Robustine] | – | 0.29 | 0.728 | – | – | – | 25188.7 | 29833.7 | 20543.7 | – | – | 0.509 |
| CC(=O)c1c(O)c(C)c(O)c(Cc2c(O)c3c(c(C(=O)/C=C/c4ccccc4)c2O)OC(C)(C)C=C3)c1O [Rottlerin] | – | 0.296 | 1.083 | – | – | – | 27122.4 | 29908.4 | 24336.4 | – | – | 0.69 |
| COc1ccc(-c2oc3c(CC=C(C)C)c(O)cc(O)c3c(=O)c2O[C@@H]2O[C@@H](C)[C@H](O)[C@@H](O)[C@H]2O[C@@H]2O[C@H](CO)[C@@H](O)[C@H](O)[C@H]2O)cc1 [Sagittatoside A] | – | -0.371 | -0.506 | 14630.2 | 21894.6 | 7365.88 | – | – | – | -0.438 | – | – |
| COc1cc(O)c2c(c1)O[C@H](c1ccc(O)cc1)CC2=O [Sakuranetin] | – | 0.003 | -0.01 | – | – | – | 19521.3 | 26379.5 | 12663.1 | – | -0.004 | – |
| OCc1ccccc1O [Salicyl alcohol] | -0.44 | -0.325 | -0.555 | 14639.5 | 22445.8 | 6833.28 | – | – | – | – | – | – |
| O=C(O)c1ccccc1O [Salicylic acid, reference compound] | -0.516 | -1.015 | -0.017 | 13372.8 | – | – | – | 14164.1 | 12581.6 | – | – | – |
| O=C(/C=C/c1ccc(O)c(O)c1/C=C/c1ccc(O)c(O)c1)O[C@H](Cc1ccc(O)c(O)c1)C(=O)O [Salvianolic acid A] | – | -2.14 | -1.185 | – | – | – | 383.467 | 661.17 | 105.765 | -1.663 | – | – |
| O=C(/C=C/c1ccc(O)c2oc(-c3ccc(O)c(O)c3)cc12)O[C@H](Cc1ccc(O)c(O)c1)C(=O)O [Salvianolic acid C] | – | -1.645 | -1.179 | – | – | – | 3386.53 | 6602.17 | 170.893 | -1.412 | – | – |
| COc1cc2c(c(O)c1OC)-c1c(cc(OC)c(OC)c1OC)C[C@@H](C)[C@@H](C)C2 [Schisanhenol] | – | -0.397 | -0.108 | 16597.3 | 21578.6 | 11616.1 | – | – | – | -0.253 | – | – |
